Assay results taken from paper PMC7555119, “Characterization of Novel Synthetic Polyphenols: Validation of Antioxidant and Vasculoprotective Activities” (Antioxidants, 2020).
≈ marks a conversion by molar mass, not a printed value. Where “and” joins values, the source holds several entries; their conditions need not be identical. Identical values can stand only once. Like-named read-outs stand apart in the source and are kept apart here.

How the values were obtained:
[1] = Oxygen radical absorbance capacity (ORAC) assay
Experimental: The ORAC assay was performed following Ou et al., as modified by Garcés-Rimón et al.. All samples and reagents were dissolved in phosphate buffer (75 mM; pH 7.4). […] The fluorescence was recorded at 40 °C every 55 s for 95 min using a fluorimeter (SpectraMax M2; Molecular Devices, California, USA), with excitation and emission wavelengths of 480 and 520 nm, respectively. All samples were tested in triplicate. ORAC values were expressed as μmol of Trolox equivalents (TE)/μmol of pure compound.

[2] = ABTS radical cation scavenging assay
Experimental: The 2,2′-azino-bis (3-ethylbenzothiazoline-6-sulfonic acid) diammonium salt (ABTS) assay was performed according to Re et al. and modified by Oki et al. for its use in microplates. Samples were diluted in methanol. An ABTS^•+ stock solution was prepared by adding 44 μL of potassium persulfate (140 mmol/L) to a 2.5 mL ABTS^•+ aqueous solution (7 mmol/L). The working solution of the radical ABTS^+ was prepared by diluting the stock solution 1:75 (v/v) in a sodium phosphate buffer (5 mmol/L, pH 7.4) to obtain an absorbance value of 0.7±0.02 at 734 nm. Samples (30 μL) were added to 270 μL of the working solution of ABTS^•+ in a microplate. Absorbance was measured at 734 nm and 30 °C for 20 min, every 5 min in a Synergy HT plate spectrophotometer (Biotek Instruments, Winoosky, VT, USA). A calibration curve was made with Trolox (20–250 μM). All samples were analyzed in triplicate. Results were expressed in μmol TE/μmol of pure compound, as for the ORAC assays.

[3] = DPPH free radical scavenging assay (RSA); conditions: for RSA percentage: highest concentration 2 mM, 10 min
Experimental: For the 2,2′-diphenylpicrylhydrazyl (DPPH) assay, antioxidant compounds were dissolved in ethanol with a stock concentration of 4 mM and stirred for 24 h. DPPH (Alfa Aesar) was also dissolved in ethanol at 0.127 mM. Different compound solutions were prepared by serial dilutions of each stock solution ([…]). […] Amounts of 80 µL of each solution and 80 µL of DPPH were added in a 96-well plate. The absorbance was measured at different times (10, 20 and 30 min and 1 and 2 h) by a Multi-Detection Microplate Reader Synergy HT (λMAX = 515 nm). Radical scavenging activity (RSA, %) was calculated using Equation (1) (1) RSA(%)=ADPPH−AEXTRACT/ADPPH·100 where AEXTRACT and ADPPH correspond to the absorbance of DPPH with and without the extracts, respectively. Eight replicates were used for each compound and results were expressed as mean value ± standard deviation. The RSA half-maximal inhibitory concentration (IC50) values were calculated from the relationship curve of RSA versus concentrations by a non-linear fit using the software GraphPad Prism 7.

[4] = Stability in aqueous media (H2O/acetonitrile 80:20, HPLC-MS); assay type: physicochemical; conditions: for stability in aqueous media: H2O/acetonitrile (80:20%), room temperature, checked for 60 days; for Aqueous Stability (%): remaining pure compound (HPLC) after two months at room temperature in aqueous solution (+20% acetonitrile)
From the text: The solutions were checked by HPLC-MS at regular intervals of time for 60 days. […] The rest of the compounds suffered progressive degradation, with complete disappearance from the solution after 10 or 20 days. The most unstable polyphenol derivatives were 4 and 10 (Figure S1), having both two p-dihydroxy substitutions in the phenyl rings, which points to the rapid and easy oxidation to the p-hydroquinone. From the four compounds with three phenyl rings, only one was stable in aqueous solution (17).

[5] = tested on: human dermal fibroblasts (HDF); experiment: Cell viability, AlamarBlue assay; assay type: cell-based; conditions: for IC50: 24 h, AlamarBlue, non-linear fit
Experimental: Cytotoxicity of selected antioxidant compounds was assessed using human dermal fibroblasts (HDF, Innoprot, P10856) and an AlamarBlue assay. Human fibroblasts were grown and maintained using Dulbecco’s Modified Eagle Medium high glucose (DMEM, Sigma Aldrich, D6171), supplemented with 10% Fetal Bovine Serum (FBS), 2% L-glutamine and 1% penicillin/streptomycin. Cells were incubated at 37 °C, 95% relative humidity and 5% CO2. Additionally, DMEM-high glucose, HEPES, no phenol red (Gibco, 2106329) was used to prepare the AlamarBlue solution. Stock solutions of the antioxidant compounds 3, 8, 15 and 17 were prepared in dimethyl sulfoxide (DMSO). Compound 7 was not soluble enough in DMSO to obtain a cell viability IC50 value. Serial dilutions of the antioxidant compounds were prepared using the previously mentioned stock solutions and DMEM. Final DMSO concentration was maintained lower than 1% v/v in the cell culture experiments. HDF were seeded at 9 × 10^4 cells/well in a 96-well plate and incubated for 24 h. The medium was replaced by the corresponding antioxidant solutions and incubated for an additional 24 h. Then, compounds were removed, cells were washed with Dulbecco’s Phosphate Buffered Saline (PBS, Sigma Aldrich) and treated with a 10% v/v AlamarBlue (Invitrogen) solution prepared in DMEM without phenol red. After 3 h of incubation, absorbance was monitored at 570 nm by a Multi-Detection Microplate Reader Synergy HT. Cells treated with DMEM without any antioxidant compound were used as the 100% viability control. Eight replicates were used for each antioxidant solution. IC50 values were obtained by a non-linear fit using the software GraphPad Prism 7.

[6] = tested on: NADPH oxidase activity in human microvascular endothelial cells (HMEC-1); experiment: NADPH oxidase activity in endothelial cells stimulated with Angiotensin II; assay type: cell-based; conditions: HMEC-1, AngII 1 nmol/L 6 h, compound added 30 min before
Experimental: The human microvascular endothelial cells line (HMEC-1) (ATCC®, Middlesex, UK; CRL-3243™) was used. Cells were cultured according to the manufacturer instructions with MCDB131 medium (Corning, NY, USA, Cat. No. 702564) supplemented with 10 ng/mL epidermal growth factor (Sigma-Aldrich, Alcobendas, Spain), 1 μg/mL hydrocortisone (Sigma-Aldrich), 10 mmol/L glutamine (Sigma-Aldrich), 10% fetal bovine serum (FBS, Sigma-Aldrich), 100 U/mL of penicillin and 100 µg/mL of streptomycin. At 80% confluence, cells were serum-deprived for 24 h before stimulation. HMEC were treated with AngII (1 nmol/L for 6 h; Sigma-Aldrich) in the absence or in the presence of the different compounds that were added 30 min before stimulation.
(§1) The O2 production generated by NADPH oxidase was determined by a chemiluminescence assay. Briefly, endothelial cells or aortic segments were homogenized in phosphate buffer (50 mmol/L KH2PO4, 1 mmol/L EGTA, 150 mmol/L sucrose, pH 7.4). The reaction was started by the addition of a lucigenin (5 μmol/L) and NADPH (100 μmol/L; Sigma-Aldrich) mixture to the protein sample in a final volume of 250 μL. Chemiluminescence was determined every 2.4 s for 3 min in a microtiter plate luminometer (Enspire Perkin Elmer). Basal activity in the absence of NADPH was subtracted from each reading and normalized to protein concentration. Data were normalized vs. control situation.

[7] = tested on: NADPH oxidase activity in segments of aorta from C57BL6/J mice; experiment: NADPH oxidase activity in aortic segments stimulated ex vivo with IL-1β; conditions: IL-1β 10 ng/mL 6 h
Experimental: Aortic segments from three-month-old C57BL6/J mice were incubated with IL-1β (10 ng/mL, 6 h, Sigma Aldrich) in the presence and in the absence of the different compounds that were added 30 min before stimulation.
as §1

[8] = Aqueous thermodynamic solubility in H2O (UV); assay type: physicochemical; conditions: water, thermodynamic from solid
From the text: 4) Log P and aqueous solubility of selected compounds.
Table S2. Theoretical Log P values and aqueous thermodynamic solubility measured for
Comp `Chemical Structure MW LogP Calc Aqueous Solubility a
a Thermodynamic solubility in H 2O (UV). […]

[9] = tested on: Saccharomyces cerevisiae strain BY4741; experiment: In vivo antioxidant capacity in stressed yeasts (growth recovery, survivors); assay type: cell-based; conditions: for growth rate (r) recovery of stressed yeast: H2O2-stressed BY4741, doses 2, 20 and 40 μg; for carrying capacity (k) recovery of stressed yeast: H2O2-stressed BY4741, each dose tested
Experimental: Saccharomyces cerevisiae haploid strain BY4741 was used as described previously. Briefly, 20 μL of glycerol stock culture was revived in 5ml of YPD medium (1% yeast extract, 2% bacteriological peptone and 2% dextrose) at 28 °C, with shaking (210 rpm). Fifty microliters of 20-h-old culture was used to inoculate fresh 5ml YPD (control medium) or 5 mL of oxidative stress medium (YPOxD: YPOxD; 1% yeast extract, 2% bacteriological peptone, 1% dextrose and 3% H2O2). Stress (and control) was conducted during 16h at 28 °C, with shaking (220 rpm).
Growth rate was determined from growth kinetics using the BioScreen C plate-reader system (OY Growth Curves Ab Ldt., Helsinki, Finland). Stressed yeast cultures (16 h old) were used to inoculate 200 µl of fresh media to an initial OD595 of 0.05–0.07, being distributed in 100-well honeycomb plates (Oy Growth Curves) in triplicate per each condition (each different dose of each compound). Plates were then incubated at 28 °C for 72h, with shaking (High force), taking OD measurement each 15 min in the Bioscreen C. Maximum growth rate (μmax) and biomass production (carrying capacity) were determined in R using ‘Growthcurver’ package version 0.3 [24]. Growth curves were constructed in EXCEL, represented as mean ± SEM (standard error of mean). […] In addition, to measure survival after oxidative stress and antioxidant effectiveness of each compound, yeast cells from each challenge were serially diluted in 96-well plates, and each dilution was spotted (with a 8 × 6 stainless steel replica platter from SIGMA) in triplicate to determine viable colonies after 24–48 h at 28 °C. Survivors (mean ± SEM) were compared between treatments with one-way ANOVA, Fisher’s LSD test, with alpha at 0.05 for significance.

[10] = compound needed to reach 50% RSA after 10 min, read-out: DPPH PSA IC50 10 min
[11] = read-out: DPPH PSA IC50 2 h, compound needed to reach 50% RSA after 2 h

SMILES	ORAC [1]	ABTS [2]	stability in aqueous media [4]	Aqueous Stability (%) [4]	solubility [8]	melting point	further results
Oc1cc(O)c2c(c1)O[C@H](c1ccc(O)c(O)c1)[C@H](O)C2 [(-)-Epicatechin, reference compound]	10.03 ± 5.92 µmol of trolox/µmol of pure co	5.90 ± 0.73 µmol of trolox/µmol of pure co	–	–	–	–	–
O=C(Cc1cc(O)ccc1O)Nc1ccc(O)cc1 [Compound 3, 2-(2′,5′-Dihydroxyphenyl)-N-(4-hydroxyphenyl)acetamide]	19.2 ± 0.2 µmol of trolox/µmol of pure compound	3.27 ± 0.1 µmol of trolox/µmol of pure compound	sufficiently stable	77%	1300 ± 100 µg/mL (≈ 5.01 mM)	185 to 187 °C (dec.)	ORAC ([1]; TE: Trolox Equivalents): > 19 TE; ABTS (values in text) [2]: 3.2 TE; RSA ([3]; 0.031 mM, maintained from 10 min to 2 h): 78%; concentration down to which RSA ability is maintained independently of time ([3]; 10 min to 2 h): 0.031 mM; RSA capacity fold higher compared to resveratrol ([3]; after 10 min, from IC50): 8 fold; IC50 [3, 10]: 8.3 µM; RSA percentage [3]: ~78%; IC50 [3, 11]: 6.77 µM; cell viability IC50 fold lower than compounds 17 and 8 [5]: 5–7 fold; IC50 [5]: 246 µM and 240 µM; IC50 ([5]; Homo sapiens, Fibroblast): 246 µM; effect on NADPH oxidase activity induced by Angiotensin II [6]: decreasing NADPH oxidase activity levels in the same order as resveratrol; effect on NADPH oxidase activity induced by IL-1β [7]: significant inhibition of the IL-1β effects
O=C(Cc1ccc(O)cc1O)Nc1ccc(O)cc1 [Compound 8, 2-(2′,4′-Dihydroxyphenyl)-N-(4-hydroxyphenyl)acetamide]	19.3 ± 0.5 µmol of trolox/µmol of pure compound	5.00 ± 0.09 µmol of trolox/µmol of pure compound	sufficiently stable	98%	4100 ± 100 µg/mL (≈ 15.8 mM)	186 to 189 °C	ORAC ([1]; TE: Trolox Equivalents): > 19 TE; IC50 [3, 10]: 151 µM; RSA percentage [3]: 67%; IC50 [3, 11]: 64.2 µM; IC50 [5]: > 1400 µM; IC50 ([5]; Homo sapiens, Fibroblast): 1410 µM; growth rate (r) recovery of stressed yeast [9]: dose-related antioxidant effect; carrying capacity (k) recovery of stressed yeast [9]: able to recover the carrying capacity of yeast cells similarly as control antioxidants
O=C(Nc1ccc(O)cc1)Nc1ccc(O)cc1 [Compound 15, N,N′-bis(4-Hydroxyphenyl)urea]	8.9 ± 0.4 µmol of trolox/µmol of pure compound	1.17 ± 0.01 µmol of trolox/µmol of pure compound	sufficiently stable	90%	62.6 ± 0.1 µg/mL (≈ 0.256 mM)	245 °C	growth rate (r) recovery of stressed yeast [9]: dose-related antioxidant effect; carrying capacity (k) recovery of stressed yeast [9]: able to recover the carrying capacity of yeast cells similarly as control antioxidants; carrying capacity (k) recovery of stressed yeast, 2 μg dose ([9]; low 2 μg dose): slightly better than the other two polyphenols and resveratrol
Oc1cc(O)c2c(c1)OC(c1ccc(O)c(O)c1)C(O)C2 [D-Catechin, reference compound]	8.59 ± 0.84 µmol of trolox/µmol of pure co	3.17 ± 1.22 µmol of trolox/µmol of pure co	–	–	–	–	–
OCCc1ccc(O)c(O)c1 [Hydroxytyrosol, reference compound]	6.33 ± 0.08 µmol of trolox/µmol of pure co	0.97 ± 0.05 µmol of trolox/µmol of pure co	–	–	–	–	–
O=c1c(O)c(-c2ccc(O)c(O)c2)oc2cc(O)cc(O)c12 [Quercetin, reference compound]	6.61 ± 0.27 µmol of trolox/µmol of pure co	5.28 ± 0.29 µmol of trolox/µmol of pure co	–	–	–	–	–
